Legend:
Rattus norvegicus [1] = species: Rattus norvegicus; test: Value of Kd measured against rat Adipocytes; type: functional, organism-based
Rattus norvegicus [2] = species: Rattus norvegicus; test: Maximal activity to stimulate lipogenisis in rat adipocytes compared to the maximal effect of insulin; type: functional

Row | Structure (SMILES) | Kd (Rattus norvegicus [1]) | Activity (Rattus norvegicus [2])
1 | Nc1c(S(=O)(=O)[O-])cc2c3c(cc(S(=O)(=O)[O-])cc13)C(=O)N(CCNC(=O)CSC[C@@H]1O[C@@H](O[C@H]3[C@H](O)[C@H](O)[C@@H](O)[C@@H]4OP(=O)(O)O[C@@H]34)[C@@H](N)[C@@H](O)[C@@H]1O)C2=O.[K+].[K+] | 12 µM | 47%
2 | NC1[C@H](O[C@H]2C(O)C(O)[C@@H](O)C3OP(=O)(O)O[C@H]32)OC(CO)[C@@H](O)[C@@H]1O (some centres undefined) | 15.9 µM | 24%

— ChEMBL document CHEMBL1143525, “A fluorescent inositol phosphate glycan stimulates lipogenesis in rat adipocytes by extracellular activation alone” (Bioorg Med Chem Lett, 2005)
